Test results reported in patent US20250082931A1, “Treating Gastric Cancer Using TTFields Combined with XELOX, FOLFOX or the Individual Constituents Thereof” (Novocure GmbH, priority 2019, published 2025).

Tests used:
KATO III cells [1] = test: Cytotoxic effect by cell count after 72 h, with and without TTFields
Method: During the treatment the media of all dishes was replaced every 24 h (“hours”).
After 72 h of treatment the media and the cells were collected, and cytotoxicity was determined by cell counts.
Cells were seeded on inovitro dishes and petri dishes 24 h before starting the experiments. Media containing the indicated concentration of each chemotherapy component alone or FOLFOX and control media was added to the cells and the dishes were connected to TTFields (as in SOP-BI-009) or grown in 37° C., 5% CO2 for 72 h. Each treatment included 8 repeats (8 dishes). The media was replaced every 24 h. At the end of the experiment the cells were collected, and cytotoxicity was determined by cell counts, small number of cells were seeded for colonies and the cells (including cells from the media) were stained for Annexin V and 7AAD for apoptosis analysis.
A TTFields generator (Inovitro systems) was used to apply the treatment to the cells.
Cytotoxic effect: Average and standard deviation of cell number of at least 5 dishes from each treatment was calculated in Excel software. The averages from these repeats was calculated to averages and standard error and is presented as percent from control (no drug treatment) in XY graph of points with error bars using GraphPed software. Significant was determine by 2-way ANOVA followed Multiple comparison using GraphPed software.

KATO III cells [2] = test: Overall effect (cytotoxic effect x clonogenic effect); settings: low concentration
Method: (§1) After 6-14 days the colonies were fixed, stained and counted to determine clonogenic effect. The overall effect was calculated by multiplying the cytotoxic effect and the clonogenic effect.
Overall effect: Each colony number was multiply in the percent of cytotoxic effect of its dish and averages and standard deviations of each treatment were calculated in Excel software. […] Significant was determine by 2-way ANOVA followed Multiple comparison using GraphPed software.

KATO III cells [3] = test: Clonogenic effect (colonies count); settings: for colonies count: 72 h;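 for all read-outs here: after treatment, KATO III cells were reseeded and grown 6–14 days, then colonies were fixed, stained and counted, expressed as percent of untreated (no drug) control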
Method: After 72 h of treatment the media and the cells were collected, and cytotoxicity was determined by cell counts. […] For the testing of the clonogenic effect, cells were seeded for colonies.
as §1
Clonogenic effect: The colonies from each well were counted using ImageJ software. Average and standard deviation of colony number of at least 5 wells from each treatment were calculated in excel software. The averages from these repeats was calculated to averages and standard errors and is presented as percent from control (no drug treatment) in XY graph of points with error bars using GraphPed software. Significant was determine by 2-way ANOVA followed Multiple comparison using GraphPed software.

AGS cells = test: Apoptosis analysis by Annexin V / 7AAD staining; type: cell-based; settings: for AnnV+ 7AAD+ cell fraction / AnnV+ 7AAD− cell fraction / AnnV− 7AAD+ cell fraction / AnnV− 7AAD− cell fraction: 72 h
[4] = 50 nM, + TTFields 150 kHz 1.6 V/cm
[5] = 100 nM, + TTFields 150 kHz 1.6 V/cm
[6] = 200 nM, + TTFields 150 kHz 1.6 V/cm
[7] = 400 nM, + TTFields 150 kHz 1.6 V/cm
[8] = FOLFOX experiment, 50 nM, no TTFields
[9] = 50 nM, + TTFields 150 kHz 1.0 V/cm
[10] = 100 nM, + TTFields 150 kHz 1.0 V/cm
[11] = 200 nM, + TTFields 150 kHz 1.0 V/cm
[12] = 400 nM, + TTFields 150 kHz 1.0 V/cm
[13] = 25 nuM, + TTFields 150 kHz 1.0 V/cm
[14] = FOLFOX experiment, 50 nM, + TTFields 150 kHz 1.0 V/cm

Compound: O=C1[O][Pt]2([NH][C@@H]3CCCC[C@H]3[NH]2)[O]C1=O [Oxaliplatin]
- cell count (KATO III cells [1]; [4]): 48 % from control
- cell count (KATO III cells [1]; 50 nM, no TTFields): 82 % from control
- cell count (KATO III cells [1]; [5]): 46 % from control
- cell count (KATO III cells [1]; 100 nM, no TTFields): 75 % from control
- cell count (KATO III cells [1]; [6]): 30 % from control
- cell count (KATO III cells [1]; 200 nM, no TTFields): 64 % from control
- cell count (KATO III cells [1]; [7]): 24 % from control
- cell count (KATO III cells [1]; 400 nM, no TTFields): 39 % from control
- cell count (KATO III cells [1]; 800 nM, + TTFields 150 kHz 1.6 V/cm): 21 % from control
- cell count (KATO III cells [1]; 800 nM, no TTFields): 25 % from control
- cell count (KATO III cells [1]; FOLFOX experiment, 50 nM, + TTFields 150 kHz 1.6 V/cm): 51 % from control
- cell count (KATO III cells [1]; [8]): 84 % from control
- additional clonogenic and overall effect over TTFields alone (KATO III cells [2]): no additional effect
- colonies count (KATO III cells [3]; [4]): 46 % from control
- colonies count (KATO III cells [3]; 50 nM, no TTFields): 71 % from control
- colonies count (KATO III cells [3]; [5]): 54 % from control
- colonies count (KATO III cells [3]; 100 nM, no TTFields): 74 % from control
- colonies count (KATO III cells [3]; [6]): 42 % from control
- colonies count (KATO III cells [3]; 200 nM, no TTFields): 70 % from control
- colonies count (KATO III cells [3]; [7]): 17 % from control
- colonies count (KATO III cells [3]; 400 nM, no TTFields): 23 % from control
- colonies number (clonogenic effect and overall effect), drug + TTFields compared to drug alone (KATO III cells [3]; Two-way ANOVA P<0.001): significant reduction in colonies number
- elevation in percent of cells that undergo apoptosis, drug + TTFields compared to drug alone (AGS cells): higher
- AnnV+ 7AAD+ cell fraction (AGS cells; 25 nM, no TTFields): 4.00%
- AnnV+ 7AAD− cell fraction (AGS cells; 25 nM, no TTFields): 6.55%
- AnnV− 7AAD+ cell fraction (AGS cells; 25 nM, no TTFields): 1.35%
- AnnV− 7AAD− cell fraction (AGS cells; 25 nM, no TTFields): 88.10%
- AnnV+ 7AAD+ cell fraction (AGS cells; [9]): 11.65%
- AnnV+ 7AAD− cell fraction (AGS cells; [9]): 8.40%
- AnnV− 7AAD+ cell fraction (AGS cells; [9]): 3.10%
- AnnV− 7AAD− cell fraction (AGS cells; [9]): 76.90%
- AnnV+ 7AAD+ cell fraction (AGS cells; 50 nM, no TTFields): 4.83%
- AnnV+ 7AAD− cell fraction (AGS cells; 50 nM, no TTFields): 5.08%
- AnnV− 7AAD+ cell fraction (AGS cells; 50 nM, no TTFields): 2.08%
- AnnV− 7AAD− cell fraction (AGS cells; 50 nM, no TTFields): 88.00%
- AnnV+ 7AAD+ cell fraction (AGS cells; [10]): 12.78%
- AnnV+ 7AAD− cell fraction (AGS cells; [10]): 9.78%
- AnnV− 7AAD+ cell fraction (AGS cells; [10]): 2.23%
- AnnV− 7AAD− cell fraction (AGS cells; [10]): 75.20%
- AnnV+ 7AAD+ cell fraction (AGS cells; 100 nM, no TTFields): 7.00%
- AnnV+ 7AAD− cell fraction (AGS cells; 100 nM, no TTFields): 6.45%
- AnnV− 7AAD+ cell fraction (AGS cells; 100 nM, no TTFields): 1.63%
- AnnV− 7AAD− cell fraction (AGS cells; 100 nM, no TTFields): 84.93%
- AnnV+ 7AAD+ cell fraction (AGS cells; [11]): 14.54%
- AnnV+ 7AAD− cell fraction (AGS cells; [11]): 11.10%
- AnnV− 7AAD+ cell fraction (AGS cells; [11]): 3.78%
- AnnV− 7AAD− cell fraction (AGS cells; [11]): 70.58%
- AnnV+ 7AAD+ cell fraction (AGS cells; [12]): 17.83%
- AnnV+ 7AAD− cell fraction (AGS cells; [12]): 11.40%
- AnnV− 7AAD+ cell fraction (AGS cells; [12]): 4.50%
- AnnV− 7AAD− cell fraction (AGS cells; [12]): 66.23%
- AnnV+ 7AAD+ cell fraction (AGS cells; 400 nM, no TTFields): 10.87%
- AnnV+ 7AAD− cell fraction (AGS cells; 400 nM, no TTFields): 6.70%
- AnnV− 7AAD+ cell fraction (AGS cells; 400 nM, no TTFields): 1.83%
- AnnV− 7AAD− cell fraction (AGS cells; 400 nM, no TTFields): 80.60%
- AnnV+ 7AAD+ cell fraction (AGS cells; [13]): 9.00%
- AnnV+ 7AAD− cell fraction (AGS cells; [13]): 7.65%
- AnnV− 7AAD+ cell fraction (AGS cells; [13]): 0.75%
- AnnV− 7AAD− cell fraction (AGS cells; [13]): 82.60%
- AnnV+ 7AAD+ cell fraction (AGS cells; 200 nuM, no TTFields): 7.64%
- AnnV+ 7AAD− cell fraction (AGS cells; 200 nuM, no TTFields): 7.00%
- AnnV− 7AAD+ cell fraction (AGS cells; 200 nuM, no TTFields): 1.46%
- AnnV− 7AAD− cell fraction (AGS cells; 200 nuM, no TTFields): 83.92%
- AnnV+ 7AAD+ cell fraction (AGS cells; [14]): 10.3%
- AnnV+ 7AAD− cell fraction (AGS cells; [14]): 7.2%
- AnnV− 7AAD+ cell fraction (AGS cells; [14]): 4.4%
- AnnV− 7AAD− cell fraction (AGS cells; [14]): 78.2%
- AnnV+ 7AAD+ cell fraction (AGS cells; [8]): 4.6%
